Data: patent US12077503B2, “Substituted cyclic amides and their use as herbicides” (FMC CORPORATION, priority 2015, dated 2024)

Experiments:
Format in all cases: in vivo
[1] = system: ivy-leaved morning glory (Ipomoea hederacea); experiment: Test G Post-Emergence Protocol; conditions: Ipomoea, post-emergence, 312 h; for pest or weed control at 15.625 g/ha: 15.625 g ai/ha, evaluated after 13 days (100=total damage to plant; 0=no damage to plant), read-out: Morningglory, Ivy-leaved damage rating; for pest or weed control at 62.5 g/ha: 62.5 g ai/ha, read-out: Morningglory, Ivy-leaved damage rating (100=total damage to plant; 0=no damage to plant); for pest or weed control at 62.5 g/ha / pest or weed control at 250 g/ha: evaluated after 13 days; for pest or weed control at 250 g/ha: 250 g ai/ha, read-out: damage to plant, Morningglory, Ivy-leaved (100=total damage to plant; 0=no damage to plant)
Outline: (§1)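 Foliar application was made 8 days after sowing, using an aqueous spray of the active in acetone/water (50:50) with 0.5% Tween 20, at doses of 15.625, 62.5 or 250 g/ha. Injury was assessed 13 days later, where 100 meant the plant was fully damaged.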

[2] = system: velvetleaf (Abutilon theophrasti); experiment: Test G Post-Emergence Protocol; conditions: Abutilon theophrasti, post-emergence, 312 h; for pest or weed control at 15.625 g/ha: 15.625 g ai/ha, evaluated after 13 days (100=total damage to plant; 0=no damage to plant), read-out: Velvetleaf damage rating; for pest or weed control at 62.5 g/ha: 62.5 g ai/ha, read-out: Velvetleaf damage rating (100=total damage to plant; 0=no damage to plant); for pest or weed control at 62.5 g/ha / pest or weed control at 250 g/ha: evaluated after 13 days; for pest or weed control at 250 g/ha: 250 g ai/ha, read-out: damage to plant, Velvetleaf (100=total damage to plant; 0=no damage to plant)
Outline: as §1

corn (Zea mays) [3] = experiment: Test G Post-Emergence Protocol; conditions: Zea mays, post-emergence, 312 h; for plant injury at 15.625 g/ha: 15.625 g ai/ha, evaluated after 13 days (100=total damage to plant; 0=no damage to plant), read-out: Corn damage rating; for plant injury at 62.5 g/ha: 62.5 g ai/ha, read-out: Corn damage rating (100=total damage to plant; 0=no damage to plant); for plant injury at 62.5 g/ha / plant injury at 250 g/ha: evaluated after 13 days; for plant injury at 250 g/ha: 250 g ai/ha, read-out: damage to plant, Corn (100=total damage to plant; 0=no damage to plant)
Outline: as §1

[4] = system: barnyardgrass (Echinochloa crus-galli); experiment: Test G Post-Emergence Protocol; conditions: Echinochloa crus-galli, post-emergence, 312 h; for pest or weed control at 15.625 g/ha: 15.625 g ai/ha, evaluated after 13 days (100=total damage to plant; 0=no damage to plant), read-out: Barnyardgrass damage rating; for pest or weed control at 62.5 g/ha: 62.5 g ai/ha, read-out: Barnyardgrass damage rating (100=total damage to plant; 0=no damage to plant); for pest or weed control at 62.5 g/ha / pest or weed control at 250 g/ha: evaluated after 13 days; for pest or weed control at 250 g/ha: 250 g ai/ha, read-out: damage to plant, Barnyardgrass (100=total damage to plant; 0=no damage to plant)
Outline: as §1

[5] = system: redroot pigweed (Amaranthus retroflexus); experiment: Test G Post-Emergence Protocol; conditions: Amaranthus retroflexus, post-emergence, 312 h; for pest or weed control at 15.625 g/ha: 15.625 g ai/ha, evaluated after 13 days (100=total damage to plant; 0=no damage to plant), read-out: Pigweed, Redroot damage rating; for pest or weed control at 62.5 g/ha: 62.5 g ai/ha, read-out: Pigweed, Redroot damage rating (100=total damage to plant; 0=no damage to plant); for pest or weed control at 62.5 g/ha / pest or weed control at 250 g/ha: evaluated after 13 days; for pest or weed control at 250 g/ha: 250 g ai/ha, read-out: damage to plant, Pigweed, Redroot (100=total damage to plant; 0=no damage to plant)
Outline: as §1

[6] = system: giant foxtail (Setaria faberi); experiment: Test G Post-Emergence Protocol; conditions: Setaria faberi, post-emergence, 312 h; for pest or weed control at 15.625 g/ha: 15.625 g ai/ha, evaluated after 13 days (100=total damage to plant; 0=no damage to plant), read-out: Foxtail, Giant damage rating; for pest or weed control at 62.5 g/ha: 62.5 g ai/ha, read-out: Foxtail, Giant damage rating (100=total damage to plant; 0=no damage to plant); for pest or weed control at 62.5 g/ha / pest or weed control at 250 g/ha: evaluated after 13 days; for pest or weed control at 250 g/ha: 250 g ai/ha, read-out: damage to plant, Foxtail, Giant (100=total damage to plant; 0=no damage to plant)
Outline: as §1

[7] = system: ivy-leaved morning glory (Ipomoea hederacea); experiment: Test G Pre-Emergence Protocol; conditions: Ipomoea, pre-emergence, 312 h, evaluated after 13 days; for pest or weed control at 15.625 g/ha: 15.625 g ai/ha, read-out: Morning-glory, Ivy-leaved damage rating (100=total damage to plant; 0=no damage to plant); for pest or weed control at 62.5 g/ha: 62.5 g ai/ha, 100=total damage to plant, 0=no damage to plant, read-out: plant damage rating, Morningglory, Ivy-leaved; for pest or weed control at 250 g/ha: 250 g ai/ha, read-out: Morningglory, Ivy-leaved damage rating (100=total damage to plant; 0=no damage to plant)
Outline: (§2)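 Under a 24/16° C day/night regime with 14 h light and 65% humidity, sown pots were sprayed after one day with compound (15.625, 62.5 or 250 g/ha; 50:50 acetone/water, 0.5% Tween 20). Damage was assessed visually 13 days later, 0 to 100.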

[8] = system: velvetleaf (Abutilon theophrasti); experiment: Test G Pre-Emergence Protocol; conditions: Abutilon theophrasti, pre-emergence, 312 h, evaluated after 13 days; for pest or weed control at 15.625 g/ha: 15.625 g ai/ha; for pest or weed control at 15.625 g/ha / pest or weed control at 250 g/ha: read-out: Velvetleaf damage rating (100=total damage to plant; 0=no damage to plant); for pest or weed control at 62.5 g/ha: 62.5 g ai/ha, 100=total damage to plant, 0=no damage to plant, read-out: plant damage rating, Velvetleaf; for pest or weed control at 250 g/ha: 250 g ai/ha
Outline: as §2

corn (Zea mays) [9] = experiment: Test G Pre-Emergence Protocol; conditions: Zea mays, pre-emergence, 312 h, evaluated after 13 days; for plant injury at 15.625 g/ha: 15.625 g ai/ha; for plant injury at 15.625 g/ha / plant injury at 250 g/ha: read-out: Corn damage rating (100=total damage to plant; 0=no damage to plant); for plant injury at 62.5 g/ha: 62.5 g ai/ha, 100=total damage to plant, 0=no damage to plant, read-out: plant damage rating, Corn; for plant injury at 250 g/ha: 250 g ai/ha
Outline: as §2

[10] = system: barnyardgrass (Echinochloa crus-galli); experiment: Test G Pre-Emergence Protocol; conditions: Echinochloa crus-galli, pre-emergence, 312 h, evaluated after 13 days; for pest or weed control at 15.625 g/ha: 15.625 g ai/ha, read-out: Barnyard grass damage rating (100=total damage to plant; 0=no damage to plant); for pest or weed control at 62.5 g/ha: 62.5 g ai/ha, 100=total damage to plant, 0=no damage to plant, read-out: plant damage rating, Barnyardgrass; for pest or weed control at 250 g/ha: 250 g ai/ha, read-out: Barnyardgrass damage rating (100=total damage to plant; 0=no damage to plant)
Outline: as §2

[11] = system: redroot pigweed (Amaranthus retroflexus); experiment: Test G Pre-Emergence Protocol; conditions: Amaranthus retroflexus, pre-emergence, 312 h, evaluated after 13 days; for pest or weed control at 15.625 g/ha: 15.625 g ai/ha; for pest or weed control at 15.625 g/ha / pest or weed control at 250 g/ha: read-out: Pigweed, Redroot damage rating (100=total damage to plant; 0=no damage to plant); for pest or weed control at 62.5 g/ha: 62.5 g ai/ha, 100=total damage to plant, 0=no damage to plant, read-out: plant damage rating, Pigweed, Redroot; for pest or weed control at 250 g/ha: 250 g ai/ha
Outline: as §2

[12] = system: giant foxtail (Setaria faberi); experiment: Test G Pre-Emergence Protocol; conditions: Setaria faberi, pre-emergence, 312 h, evaluated after 13 days; for pest or weed control at 15.625 g/ha: 15.625 g ai/ha; for pest or weed control at 15.625 g/ha / pest or weed control at 250 g/ha: read-out: Foxtail, Giant damage rating (100=total damage to plant; 0=no damage to plant); for pest or weed control at 62.5 g/ha: 62.5 g ai/ha, 100=total damage to plant, 0=no damage to plant, read-out: plant damage rating, Foxtail, Giant; for pest or weed control at 250 g/ha: 250 g ai/ha
Outline: as §2

SMILES | pest or weed control at 15.625 g/ha [1] | pest or weed control at 62.5 g/ha [1] | pest or weed control at 250 g/ha [1] | pest or weed control at 15.625 g/ha [2] | pest or weed control at 62.5 g/ha [2] | pest or weed control at 250 g/ha [2] | plant injury at 15.625 g/ha (corn (Zea mays) [3]) | plant injury at 62.5 g/ha (corn (Zea mays) [3]) | plant injury at 250 g/ha (corn (Zea mays) [3]) | pest or weed control at 15.625 g/ha [4] | pest or weed control at 62.5 g/ha [4] | pest or weed control at 250 g/ha [4] | pest or weed control at 15.625 g/ha [5] | pest or weed control at 62.5 g/ha [5] | pest or weed control at 250 g/ha [5] | pest or weed control at 15.625 g/ha [6] | pest or weed control at 62.5 g/ha [6] | pest or weed control at 250 g/ha [6] | pest or weed control at 15.625 g/ha [7] | pest or weed control at 62.5 g/ha [7] | further results
CN1C[C@@H](c2ccc(C(F)(F)F)cc2)[C@H](C(=O)Nc2cccc(Cl)n2)C1=O (racemic) [Compound 1606] | 0% | 0% | 30% | 0% | 0% | 60% | 0% | 0% | 0% | 20% | 40% | 50% | 40% | 40% | 100% | 40% | 70% | 80% | 0% | 0% | pest or weed control at 250 g/ha [7]: 10%; pest or weed control at 15.625 g/ha [8]: 0%; pest or weed control at 62.5 g/ha [8]: 0%; pest or weed control at 250 g/ha [8]: 0%; plant injury at 15.625 g/ha (corn (Zea mays) [9]): 0%; plant injury at 62.5 g/ha (corn (Zea mays) [9]): 0%; plant injury at 250 g/ha (corn (Zea mays) [9]): 10%; pest or weed control at 15.625 g/ha [10]: 0%; pest or weed control at 62.5 g/ha [10]: 20%; pest or weed control at 250 g/ha [10]: 60%; pest or weed control at 15.625 g/ha [11]: 0%; pest or weed control at 62.5 g/ha [11]: 0%; pest or weed control at 250 g/ha [11]: 0%; pest or weed control at 15.625 g/ha [12]: 0%; pest or weed control at 62.5 g/ha [12]: 60%; pest or weed control at 250 g/ha [12]: 90%
CN1C[C@H](c2ccc(C(F)(F)F)cc2)[C@@H](C(=O)Nc2ccc(F)c(C(F)(F)F)c2)C1=O (racemic) [Compound 1443] | 0% | 0% | 0% | 0% | 0% | 0% | 0% | 0% | 0% | 0% | 0% | 0% | 0% | 0% | 0% | 0% | 0% | 0% | 0% | 0% | pest or weed control at 250 g/ha [7]: 0%; pest or weed control at 15.625 g/ha [8]: 0%; pest or weed control at 62.5 g/ha [8]: 0%; pest or weed control at 250 g/ha [8]: 0%; plant injury at 15.625 g/ha (corn (Zea mays) [9]): 0%; plant injury at 62.5 g/ha (corn (Zea mays) [9]): 0%; plant injury at 250 g/ha (corn (Zea mays) [9]): 0%; pest or weed control at 15.625 g/ha [10]: 0%; pest or weed control at 62.5 g/ha [10]: 0%; pest or weed control at 250 g/ha [10]: 0%; pest or weed control at 15.625 g/ha [11]: 0%; pest or weed control at 62.5 g/ha [11]: 0%; pest or weed control at 250 g/ha [11]: 0%; pest or weed control at 15.625 g/ha [12]: 0%; pest or weed control at 62.5 g/ha [12]: 0%; pest or weed control at 250 g/ha [12]: 0%
